According to ChEMBL document CHEMBL1144106, “Highly oxygenated pseudopterane and cembranolide diterpenes from the Caribbean sea feather Pseudopterogorgia bipinnata” (1999):
Active and inactive are the calls of the source. The rule behind the calls is not given here.

Tests used:
[1] = system: Mycobacterium tuberculosis; test: Antituberculosis activity against Mycobacterium tuberculosis H37Rv at 12.5 ug/mL; assay type: functional, organism-based
CCRF-CEM = test: Cytotoxicity against human CCRF-CEM cells; assay type: functional

Compound | Activity [1] | GI50 (CCRF-CEM)
C=C(C)[C@@H]1CCC2=C[C@H](C/C(C)=C\C3=CC(C)=C(O3)[C@H]1O)OC2=O | inactive | 
C=C(C(=O)OC)[C@@H]1C[C@@H](OC(C)=O)C2=C[C@H](C[C@@]3(C)O[C@@H]3C3=CC(C)=C(O3)[C@H]1OC(C)=O)OC2=O [BIPINNATIN I] |  | 42.7 nM
C=C(C)[C@@H]1C[C@H]2O[C@](O)(C/C(C)=C\C(=O)/C=C(/C)C[C@@H]3OC(=O)[C@]24O[C@@H]34)[C@H]1O | inactive | 
C=C(C)[C@H]1C(=O)[C@H]2O[C@@]2(C)C(=O)[C@@H](O)[C@H](C(=C)C)CCC2=C[C@H]1OC2=O | inactive | 
C=C(C)[C@H]1C2=CC(C)=C(O2)[C@@H](O)[C@H](C(=C)C)CCC2=C[C@H]1OC2=O | inactive | 
